Source: patent publication US20210284617A1, “Synthesis of (S)-2-Amino-4-Methyl-((R)-2-Methyloxirane-2-Yl)-Pentan-1-One and Pharmaceutically Acceptable Salts Thereof” (Amgen Inc., priority 2016, published 2021)
Converted amounts (≈) assume the structure as drawn.

Experiments:
[1] = Solubility of compound in organic solvents (crystallization development); type: physicochemical; conditions: for solubility in organic solvents (in words): isolation/crystallization context
Description: Importantly, the intermediate synthesis of compound 3a allowed for the development of a crystallization process capable of purging upstream impurities and eliminating the requirement for column chromatography at step 1 or 2. […] Alternatively, a ternary system of three (3) solvents, such as acetonitrile/water/acetic acid will also work to isolate compound 3a. Further, the epoxidation step 3 in scheme 3 using the Mn-y76t catalyst of the present invention followed by crystallization with IPA/water worked well to not only to purge the diasteromer impurity but also to purge upstream process impurities.

[2] = Storage stability of the step 2 product, concentrated or in ACN/MTBE solution; type: physicochemical; conditions: for time stable in solution: 2-10 V of ACN or MTBE
Description: Appropriate quenching of the Grignard process is important to ensure product quality and to eliminate racemization. A Grignard adduct impurity resulting from double-addition of the Grignard reagent was detected by LCMS at ˜2 LCAP during inverse addition of the reaction mixture to a mixture of MTBE (5 V) and 25% citric acid aqueous solution (10 V). An increase in the level of the double-addition by-product (up to 11 LCAP) was observed when quenching the reaction mixture into citric acid solution (in the absence of MTBE) with an associated decrease in product yield by >35%. The excess Grignard could react with product of step 2 that was hydrolyzed after work-up leading to the formation of the impurity. Of note, the impurities of double-addition, morpholine-adduct and dimers could not be detected by HPLC due to their relatively low response factors, but could be detected by LCMS and TLC (EtOAc/heptane 1:4, Nihydrin). Thus, it is important to carefully control the amount of Grignard reagents used and to carefully quench the reaction upon completion. Racemization of step 2 product was not observed during the course of optimization of the Grignard process or during the inverse quenching step. The concentrated product with BHT was stable at ambient temperature for one month; BHT in this sample originated from the solvent (250 ppm in stabilized THF) used in the Grignard process. The solution containing the product of step 2 in 2-10 V of ACN or MTBE was stable at room temperature or 5° C. for at least 4 days or 18 hours at 35° C., which was required to optimize the solvent switch to ACN for the step 3 epoxidation.

SMILES	solubility in organic solvents (in words) [1]	solubility ([1]; organic solvent or mixture, n-hexane at −20° C.) [mg/mL]	time stable in solution ([2]; 35° C.) [h]	time stable in solution ([2]; room temperature or 5° C.)	time stable as concentrated product ([2]; concentrated product with BHT, ambient temperature)
CC(C)C[C@@H](NC(=O)OC(C)(C)C)C(=O)[C@@]1(C)CO1 [compound 3a, tert-butyl ((R)-4-methyl-1-((R)-2-methyloxiran-2-yl)-1-oxopentan-2-yl)carbamate]	improved solubility profile				
CC(C)C[C@H](NC(=O)OC(C)(C)C)C(=O)[C@@]1(C)CO1 [compound 4a, tert-butyl ((S)-4-methyl-1-((R)-2-methyloxiran-2-yl)-1-oxopentan-2-yl)carbamate]	high solubility in most all organic solvents	~34 (≈ 125 mM)			
C=C(C)C(=O)[C@@H](CC(C)C)NC(=O)OC(C)(C)C [compound 2a, (R)-tert-butyl (2,6-dimethyl-3-oxohept-1-en-4-yl)carbamate]			18	at least 4 days	one month
